# Measured values from patent US9702866B2, “Glatiramer acetate human monocytic cell line-based potency assay” (SYNTHON B.V., priority 2013, dated 2017).
# Tests used:
# THP-1 cells [1] = assay: sIL-1Ra expression of IFNγ-stimulated THP-1 cells after exposure to GA (ELISA); assay type: cell-based, human; conditions: THP-1 cells in the presence of IFNγ
# Experimental: • Add 10 ml RPMI-1640 Medium (Lonza/Cambrex, #12-70F) with 10% FBS (fetal bovine serum) to a 15 ml sterile tube. • Remove one vial of THP-1 cells (ATCC, #TIB-202) from the liquid nitrogen storage tank and thaw the cells in the vial by gentle agitation in a 37° C.±1° C. water bath until almost totally thawed. • Sterilize the outside of the vial using a wipe, soaked in 70% (v/v) ethanol. • Using good aseptic technique, open the vial and transfer the contents of the vial into a Falcon tube, adding 10 ml of the pre-warmed RPMI-1640 plus 10% FBS. • Spin down at approximately 200 g for 5 minutes. Afterwards, discard the supernatant. • Resuspend the pellet into 10 ml pre-warmed RPMI-1640 plus 10% FBS, and transfer the cell suspension to a T-25 culture flask. • Place the T-25 cell culture flask into a humidified incubator at 37±1° C. and 5.0±1% CO2. Sub-Culturing (Passaging) of THP-1 Cells • THP-1 cells are sub-cultured every 3 or 4 days. • Collect cells and spin down at 200 g for 5 min. […] Supernatant Harvest and ELISA • After 72 hours of incubation centrifuge the 96-well plate at 200 g for 5 minutes. • Transfer 125 μl of the cell-free supernatant/well to a storage plate. • sIL-1Ra is determined in the cell supernatants using the sIL-1Ra ELISA kit from Quantikine, R&D, Minneapolis, Minn. […]
# THP-1 cells [2] = assay: lactate dehydrogenase (LDH) release as marker for cell death in IFNγ-activated THP-1 cells; assay type: cell-based, human; conditions: 100 μg/ml glatiramer acetate, IFNγ (10 ng/ml)-activated THP-1 cells
# THP-1 cells [3] = assay: cell viability by ATP levels (CellTiter-Glo) in IFNγ-activated THP-1 cells; assay type: cell-based, human; conditions: IFNγ (25 ng/ml)-activated THP-1 cells, after 120 h of culture
# Experimental: In another embodiment of the present invention, the viability of human monocytic cell line cells, particularly THP-1 cells, is measured. Suitable methods to determine viability of human monocytic cell line cells are well-known to the person skilled in the art. One suitable method is measuring ATP levels (for instance the CellTiter-Glo® Luminescent Cell Viability Assay is a homogeneous method to determine the number of viable cells in culture based on quantitation of the ATP present, which signals the presence of metabolically active cells) after a suitable time period, typically after 96-144 hours, particularly after 120 hours. When determining the number of viable cells, similar or slightly higher concentrations of IFNγ can be used as described above.
# Upon confirmation of parallelism the reduced model will be fitted and the EC50 for the Reference and test batch will be estimated by EC50RS and EC50TA respectively. The relative potency of the test batch will be estimated as: Relative potency=EC50RS/EC50TA*100% Cell Viability • The number of metabolically active cells in the cultures is determined by the CellTiter-Glo® Luminescent Cell Viability Assay (Promega, G7571). […] It is based on quantitation of adenosine tri-phosphate (ATP), which signals the presence of metabolically active cells.
# [4] = tested on: Human leukemic monocyte lymphoma cells (U937); assay: responsiveness of U937 cells to GA; assay type: cell-based
# human monocytes = human monocytes in vitro; cited from earlier work
# [5] = MS patients, in vivo; cited from earlier work
substance,measurement,setting,value
Glatiramer acetate [GA],sIL-1Ra secretion,THP-1 cells [1],induces sIL-1Ra secretion
same,cell death (LDH release),THP-1 cells [2],induces cell death
same,cell viability (ATP levels),THP-1 cells [3],cell viability inhibition
same,responsiveness of cells to GA,[4],not responsive
same,production of sIL-1Ra in monocytes,human monocytes,induces the production
same,sIL-1Ra circulating levels,[5],enhances sIL-1Ra circulating levels
